Reference: article PMC12141164, “Phase-1 study of vamotinib (PF-114), a 3rd generation BCR::ABL1 tyrosine kinase-inhibitor, in chronic myeloid leukaemia” (Annals of Hematology, 2025)
Like-named read-outs stand apart in the source and are kept apart here.

System: subjects with BCR::ABL1 positive CML
Conditions: for SAE: Upper respiratory tract infection: Relation to study drug No
Description: Open-label phase-1 study at 3 clinical centers with dose-escalation using a 3 + 3 scheme with a starting dose of 50 mg/d given continuously. A 28-days of therapy was defined as a cycle. Dose escalation for the subsequent cohort depended on the results of the safety assessment of subjects in the preceding cohort during the 28 days of therapy. Once an MTD was identified expanded cohorts of 10–15 subjects were recruited at doses of interest below the MTD. A modified accelerated dose-escalation regimen was used up to a dose of 400 mg. Dose could be increased for subjects in whom the dose was reduced because of an adverse drug reaction (ADR). Severity of adverse events was assessed using NCI CTC AE v4 [28].
The primary objective was to determine the MTD and DLT of vamotinib during the 1st cycle of therapy. Secondary objectives were to assess the safety and tolerability of vamotinib, determine pharmacokinetics and determine efficacy by response criteria according to 2013 ELN [29].
Safety set consists of all patients, who at least once took the study drug.
Population for DLT evaluation consists of all patients, who received sufficient amount of the study drug during Cycle 1 for adequate DLT assessment.
The sufficient amount of the drug is determined as the intake of ≥ 75 % of the scheduled dose during Cycle 1, except for doses missed due to the DLT.

Q: How did the “SAE: Infections and infestations” value (Cohort 1 50 mg N=3) turn out when `Cc1ccc(C(=O)Nc2ccc(CN3CCN(C)CC3)c(C(F)(F)F)c2)cc1C#Cc1nnc2ccccn12` [vamotinib] was run?
A: The value was 0 n (%).

Q: What about the “SAE: Infections and infestations” value (Cohort 2 100 mg N=3) of the same compound?
A: The value was 0 n (%).

Q: And the “SAE: Infections and infestations” value (Cohort 3 200 mg N=11)?
A: Its value is 0 n (%).

Q: And the “SAE: Infections and infestations” value (Cohort 4 400 mg N=12)?
A: Its value is 0 n (%).

Q: And the “SAE: Infections and infestations” value (Cohort 5 500 mg N=3)?
A: Its value is 0 n (%).

Q: What about the “SAE: Infections and infestations” value (Cohort 6 600 mg N=6) of the same compound?
A: Its value is 2 (33.3)/2 n (%).

Q: And the “SAE: Infections and infestations” value (Cohort 7 750 mg N=4)?
A: The value was 0 n (%).

Q: And the “SAE: Infections and infestations” value (Cohort 8 300 mg N=9)?
A: Its value is 3 (33.3)/3 n (%).

Q: What about the “SAE: Infections and infestations” value (Overall N=51) of the same compound?
A: The value was 5 (9.8)/5 n (%).

Q: And the “SAE: Upper respiratory tract infection” value (Cohort 1 (50 mg) N=3)?
A: Its value is 0 n (%).

Q: And the “SAE: Upper respiratory tract infection” value (Cohort 2 (100 mg) N=3)?
A: Its value is 0 n (%).

Q: And the “SAE: Upper respiratory tract infection” value (Cohort 3 (200 mg) N=11)?
A: The value was 0 n (%).

Q: And the “SAE: Upper respiratory tract infection” value (Cohort 4 (400 mg) N=12)?
A: The value was 0 n (%).

Q: What about the “SAE: Upper respiratory tract infection” value (Cohort 5 (500 mg) N=3) of the same compound?
A: Its value is 0 n (%).

Q: What about the “SAE: Upper respiratory tract infection” value (Cohort 6 (600 mg) N=6) of the same compound?
A: Its value is 1 (16.7)/1 n (%).

Q: What about the “SAE: Upper respiratory tract infection” value (Cohort 7 (750 mg) N=4) of the same compound?
A: Its value is 0 n (%).

Q: And the “SAE: Upper respiratory tract infection” value (Cohort 8 (300 mg) N=9)?
A: Its value is 0 n (%).

Q: And the “SAE: Upper respiratory tract infection” value (Overall N=51)?
A: Its value is 1 (2.0)/1 n (%).

Q: What about the Abdominal pain (human, in vivo) of the same compound?
A: The Abdominal pain was 2 (4) Number of subjects (percent).

Q: What about the Abdominal pain upper (human, in vivo) of the same compound?
A: Its Abdominal pain upper is 4 (8) Number of subjects (percent).

Q: And the Alanine aminotransferase increased (human, in vivo)?
A: Its Alanine aminotransferase increased is 2 (4) Number of subjects (percent).

Q: What about the Anal fissure (human, in vivo) of the same compound?
A: The Anal fissure was 2 (4) Number of subjects (percent).

Q: And the Blood cholesterol increased (human, in vivo)?
A: Its Blood cholesterol increased is 3 (6) Number of subjects (percent).

Q: And the “Discontinued: adverse event” value (human, in vivo)?
A: Its value is 6.

Q: And the “Discontinued: intolerable adverse drug reaction in the opinion of the investigator” value (human, in vivo)?
A: Its value is 2.

Q: What about the Dry skin (human, in vivo) of the same compound?
A: Its Dry skin is 9 (18) Number of subjects (percent).

Q: What about the “Dry skin and rash” value (human, in vivo) of the same compound?
A: Its value is 8 subjects.

Q: What about the “Dry skin, Grade 3” value (human, in vivo) of the same compound?
A: The value was 0 n.

Q: And the “Dry skin, Total” value (human, in vivo)?
A: The value was 9 n.

Q: What about the Dyspepsia (human, in vivo) of the same compound?
A: Its Dyspepsia is 2 (4) Number of subjects (percent).

Q: What about the Erythema (human, in vivo) of the same compound?
A: The Erythema was 4 (8) Number of subjects (percent).

Q: And the “Erythema, Grade 3” value (human, in vivo)?
A: The value was 0 n.

Q: What about the “Erythema, Total” value (human, in vivo) of the same compound?
A: Its value is 4 n.

Q: What about the Eye disorders (human, in vivo) of the same compound?
A: Its Eye disorders is 3 (6) Number of subjects (percent).

Q: What about the Gastrointestinal disorders (human, in vivo) of the same compound?
A: Its Gastrointestinal disorders is 17 (33) Number of subjects (percent).

Q: And the Hepatitis toxic (human, in vivo)?
A: The Hepatitis toxic was 1 (2) Number of subjects (percent).

Q: What about the Hepato-biliary disorders (human, in vivo) of the same compound?
A: Its Hepato-biliary disorders is 1 (2) Number of subjects (percent).

Q: And the Leukopenia (human, in vivo)?
A: The Leukopenia was 1 (2) Number of subjects (percent).

Q: And the “Low density lipoprotein increased” value (human, in vivo)?
A: Its value is 2 (4) Number of subjects (percent).

Q: And the Nausea (human, in vivo)?
A: Its Nausea is 6 (12) Number of subjects (percent).

Q: What about the “Pruritus, Grade 3” value (human, in vivo) of the same compound?
A: Its value is 1 n.

Q: And the “Pruritus, Total” value (human, in vivo)?
A: The value was 5 n.

Q: What about the “Psoriasiform dermatitis, Grade 3” value (human, in vivo) of the same compound?
A: Its value is 4 n.

Q: What about the “Psoriasiform dermatitis, Total” value (human, in vivo) of the same compound?
A: The value was 19 n.

Q: What about the Rash (human, in vivo) of the same compound?
A: Its Rash is 32 subjects.

Q: What about the Rash papular (human, in vivo) of the same compound?
A: Its Rash papular is 2 (4) Number of subjects (percent).

Q: What about the “Rash papular, Grade 3” value (human, in vivo) of the same compound?
A: The value was 0 n.

Q: And the “Rash papular, Total” value (human, in vivo)?
A: Its value is 2 n.

Q: And the “SAE: Acute sinusitis” value (human, in vivo)?
A: Its value is 1 (2.0)/1 n (%).

Q: And the “SAE: Appendicitis” value (human, in vivo)?
A: Its value is 1 (2.0)/1 n (%).

Q: What about the “SAE: Atrial fibrillation” value (human, in vivo) of the same compound?
A: The value was 1 (2.0)/1 n (%).

Q: And the “SAE: Cardiac disorders” value (human, in vivo)?
A: Its value is 1 (2.0)/1 n (%).

Q: And the “SAE: Disease progression” value (human, in vivo)?
A: The value was 1 (2.0)/1 n (%).

Q: And the “SAE: General disorders and administration site conditions” value (human, in vivo)?
A: Its value is 1 (2.0)/1 n (%).

Q: And the “SAE: Peritonitis” value (human, in vivo)?
A: Its value is 1 (2.0)/1 n (%).

Q: And the “SAE: Pneumonia” value (human, in vivo)?
A: Its value is 1 (2.0)/1 n (%).

Q: And the “Toxic skin eruption, Grade 3” value (human, in vivo)?
A: Its value is 7 n.

Q: What about the “Toxic skin eruption, Total” value (human, in vivo) of the same compound?
A: The value was 9 n.

Q: And the Transaminases increased (human, in vivo)?
A: The Transaminases increased was 1 (2) Number of subjects (percent).

Q: And the “dose-reduction because of rash” value (human, in vivo)?
A: Its value is 9 n.

Q: And the “study withdrawal because of rash” value (human, in vivo)?
A: Its value is 6 n.

Q: What about the “time after which skin lesions were resolved” value (human, in vivo) of the same compound?
A: The value was 4–6 months.

Q: And the “time to resolution of skin toxicity after discontinuation of the drug” value (human, in vivo)?
A: The value was 1–2 weeks.

Q: What about the DLTs (human, in vivo, 28 days) of the same compound?
A: The DLTs was 4.

Q: What about the “dose-limiting toxicity (DLT)” value (human, in vivo, 28 days) of the same compound?
A: Its value is “Grade-3 psoriasis-like skin toxicity”.

Q: What about the “dose-limiting toxicity (DLT)” value (in vivo) of the same compound?
A: The value was “rash”.
